These are literature values, as cited in patent US20230414692A1, “ETHANOLIC EXTRACT OF SEEDS OF SOLANUM MELONGENA, METHOD FOR OBTAINING IT, PHARMACEUTICAL COMPOSITION CONTAINING IT AND USE THEREOF AS AN ANTITUMOUR AGENT” (UNIVERSIDAD DE GRANADA, priority 2020, published 2023).

The subject of data set [1] is 143B.TK osteosarcoma cell line. Conditions: Cohen et al., 1996.
Data set [2] has as its system NIE.115 neuroblastoma cell line. To be noted: Cohen et al., 1996.

Molecules are shown by their SMILES.

`C/C=C(/C)C(=O)O[C@H]1C[C@@H](OC(C)=O)[C@@]2(C)CO[C@H]3[C@H]4O[C@@H]5C[C@@H](c6ccoc6)C(C)=C5[C@@]4(C)[C@H](CC(=O)OC)[C@]1(C)[C@@H]32` [Salannin]: the IC50 (usually the concentration that gives 50% inhibition) in data set [1] is 89 ± 12 µM; in data set [2], 133 ± 6 µM.
